What follows are compounds tested against T1, P2X purinoceptor 7 (Homo sapiens, UniProt Q99572) (assay: SUPPLEMENTARY: Inhibition of human P2X7 receptor assessed as inhibition of ethidium bromide accumulation. Same assay as CHEMBL1103860).
T1 sequence (Q99572 whole entry): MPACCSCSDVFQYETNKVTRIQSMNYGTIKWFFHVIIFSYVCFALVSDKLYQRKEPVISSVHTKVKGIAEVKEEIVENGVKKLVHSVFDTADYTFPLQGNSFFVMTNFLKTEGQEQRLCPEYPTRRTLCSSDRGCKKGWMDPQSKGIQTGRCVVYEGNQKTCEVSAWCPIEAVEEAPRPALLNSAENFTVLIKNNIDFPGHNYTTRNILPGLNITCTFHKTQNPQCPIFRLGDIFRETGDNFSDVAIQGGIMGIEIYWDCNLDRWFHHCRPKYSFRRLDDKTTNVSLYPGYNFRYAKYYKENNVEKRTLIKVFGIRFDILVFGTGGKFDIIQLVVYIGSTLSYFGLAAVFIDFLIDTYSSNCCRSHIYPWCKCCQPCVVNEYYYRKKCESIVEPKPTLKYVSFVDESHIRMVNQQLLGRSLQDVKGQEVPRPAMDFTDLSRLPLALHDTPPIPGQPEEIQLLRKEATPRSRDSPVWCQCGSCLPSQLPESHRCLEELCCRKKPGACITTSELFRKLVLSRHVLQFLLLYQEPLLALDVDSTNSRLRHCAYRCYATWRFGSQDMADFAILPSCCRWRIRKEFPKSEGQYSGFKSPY

Point of comparison: `O=C(c1ccc(F)cc1Cl)N1CCN(c2cccc3ccccc23)C(=O)C1`, IC50 100 nM. Against it:
- CN1[C@H](C(=O)NCc2ccc(F)c(F)c2Cl)CCS1(=O)=O — within 1.5-fold, 79.4 nM
- Cc1c(N2CCCC2)cccc1N1CCN(Cc2ccc(F)cc2Cl)C(=O)C1=O — 4-fold lower, 25.1 nM
- Cc1ccc(-c2ccc(C)c(N3CCN(C(=O)c4cccc(C(F)(F)F)c4Cl)CC3=O)c2)cn1 — 2.5-fold lower, 39.8 nM
- O=C1CN(C(=O)c2cccc(C(F)(F)F)c2Cl)CCN1CC1CC1 — 7.9-fold lower, 12.6 nM
- CN1C(=O)N(CCN2CCOCC2)C[C@H]1C(=O)NCc1ccc(F)c(F)c1Cl — 1.6-fold lower, 63.1 nM
- Cc1nn(-c2ccccc2)c(C)c1CC(=O)NCc1cc(F)ccc1C(F)(F)F — 5-fold higher, 501 nM
- O=C(NCc1ccc(Cl)cc1Cl)C1CCC(=O)N1C1CC1 (configuration not stated) — 32-fold lower, 3.16 nM
- Cn1ncc(F)c1CC(=O)NCc1ccc(F)cc1Cl — within 1.5-fold, 126 nM
- Cc1ccccc1N1CCN(C(=O)c2cccc(Cl)c2Cl)CC1=O — 6.3-fold lower, 15.8 nM
- Cc1ccccc1N1CCN(Cc2c(F)cccc2Cl)C(=O)C1=O — 10-fold higher, 1000 nM
- Cc1cccnc1N1CCN(Cc2ccc(F)cc2Cl)C(=O)C1=O — 6.3-fold higher, 631 nM
- COc1c(F)cccc1N1CCN(Cc2ccc(F)cc2Cl)C(=O)C1=O — within 1.5-fold, 79.4 nM
- CN1C(=O)c2ccccc2C1C(=O)NCc1cccc(C(F)(F)F)c1Cl (configuration not stated) — 6.3-fold lower, 15.8 nM
- Cc1c(Br)cccc1N1CCN(Cc2ccc(F)cc2Cl)C(=O)C1=O — 2-fold lower, 50.1 nM
- CN1C[C@@H](C(=O)NCc2ccc(F)c(F)c2Cl)N(C)C1=O — 32-fold lower, 3.16 nM
- O=C(c1cccc(Cl)c1Cl)N1CCn2c(nnc2-c2cccnn2)C1 — 3.2-fold lower, 31.6 nM
- CCN1C(=O)CC[C@H]1C(=O)NCc1cccc(C(F)(F)F)c1F — 4-fold lower, 25.1 nM
- CN1C[C@@H](C(=O)NCc2cccc(C(F)(F)F)c2F)N(C)C1=O — 13-fold lower, 7.94 nM
- CN1C(=O)N(c2ccnn2C)C[C@H]1C(=O)NCc1ccc(Cl)cc1Cl — 10-fold lower, 10 nM
- Cc1ccccc1N1CCN(Cc2ccc(Cl)cc2)C(=O)C1=O — 4-fold higher, 398 nM
- CN(C)CCn1ncc(CC(=O)NCc2ccc(F)cc2Cl)c1C(F)(F)F — 13-fold higher, 1260 nM
- Cc1nn(CC2CCCCC2)c(C)c1CC(=O)NCc1ccc(F)cc1Cl — 6.3-fold higher, 631 nM
- Cc1cc(F)ccc1N1CCN(C(=O)c2cccc(Cl)c2Cl)CC1=O — 2-fold lower, 50.1 nM
- CN1C(=O)CC[C@H]1C(=O)NCc1ccc(F)cc1C(F)(F)F — the same, 100 nM
- CCN1C(=O)N(C)C[C@H]1C(=O)NCc1cccc(C(F)(F)F)c1Cl — 130-fold lower, 0.794 nM
- CCN1C(=O)CC[C@H]1C(=O)NCc1c(F)ccc(F)c1Cl — 7.9-fold higher, 794 nM
- CCN1C(=O)CC[C@@H]1C(=O)NCc1ccc(F)cc1C(F)(F)F — 2-fold higher, 200 nM
- Cc1ccccc1CN1CCN(c2ccccc2C)C(=O)C1=O — 5-fold higher, 501 nM
- O=C(c1cccc(C(F)(F)F)c1Cl)N1CCn2c(Br)nnc2C1 — 13-fold lower, 7.94 nM
- O=C(c1cccc(C(F)(F)F)c1Cl)N1CCn2c(nnc2-c2ccc[nH]2)C1 — 63-fold lower, 1.58 nM
- Cc1c(Cl)cccc1CNC(=O)[C@@H]1CCS(=O)(=O)N1C — the same, 100 nM
- O=C(c1ccccc1Cl)N1CCn2c(nnc2-c2cscn2)C1 — 10-fold lower, 10 nM
- COc1cccc(N2CCN(Cc3ccc(F)cc3Cl)C(=O)C2=O)c1C — 4-fold lower, 25.1 nM
- O=C(c1cccc(C(F)(F)F)c1Cl)N1CCn2c(nnc2-c2cscn2)C1 — 63-fold lower, 1.58 nM
- Cc1ccc(N2CCOCC2)cc1N1CCN(C(=O)c2cccc(C(F)(F)F)c2Cl)CC1=O — 6.3-fold lower, 15.8 nM
- CN1CC(C(=O)NCc2cccc(C(F)(F)F)c2Cl)CC1=O (configuration not stated) — 1.6-fold lower, 63.1 nM
- O=C(c1ccc(F)cc1Cl)N1CCn2c(-c3cnccn3)cnc2C1 — 25-fold lower, 3.98 nM
- CN1C(=O)NC[C@H]1C(=O)NCc1ccc(F)cc1Cl — 2.5-fold lower, 39.8 nM
- O=C(c1ccc(F)cc1Cl)N1CCn2c(-c3ccc(F)cn3)cnc2C1 — 4-fold lower, 25.1 nM
- COCCc1nnc2n1CCN(C(=O)c1cccc(C(F)(F)F)c1Cl)C2 — the same, 100 nM
- CN1C(=O)N(c2ccccn2)C[C@H]1C(=O)NCc1cccc(C(F)(F)F)c1Cl — 16-fold lower, 6.31 nM
- O=C(c1ccc(Cl)c(F)c1Cl)N1CCn2c(nnc2-c2cnccn2)C1 — 50-fold lower, 2 nM
- CN1C(=O)N(c2ccnc(F)c2)C[C@H]1C(=O)NCc1ccc(F)c(F)c1Cl — 7.9-fold lower, 12.6 nM
- CN1C(=O)N(c2ncccn2)CC1C(=O)NCc1cccc(C(F)(F)F)c1Cl (configuration not stated) — 32-fold lower, 3.16 nM
- CN1C(=O)N(c2ccnn2C)C[C@H]1C(=O)NCc1ccc(F)c(F)c1Cl — 5-fold lower, 20 nM
- CN1C[C@@H](C(=O)NCc2ccc(Cl)cc2Cl)N(CC(F)(F)F)C1=O — 6.3-fold lower, 15.8 nM
- Cc1nn(-c2ncccn2)c(C)c1CC(=O)NCc1ccc(F)c(F)c1F — within 1.5-fold, 79.4 nM
- O=C(Cc1cn(CCNC2CCOCC2)nc1C(F)(F)F)NCc1ccc(F)cc1Cl — 7.9-fold higher, 794 nM
- Cc1ccc(N2C[C@@H](C(=O)NCc3ccc(F)cc3Cl)N(C)C2=O)c(C)n1 — 1.6-fold lower, 63.1 nM
- Cc1ccccc1N1CCN(Cc2ccc(F)cc2Cl)C(=O)C1=O — 2-fold lower, 50.1 nM
- CN1C(=O)CC[C@H]1C(=O)NCc1cccc(C(F)(F)F)c1C#N — 16-fold lower, 6.31 nM
- O=C(c1cccc(C(F)(F)F)c1Cl)N1CCn2c(nnc2N2CCCCC2)C1 — the same, 100 nM
- O=C(c1cccc(C(F)(F)F)c1Cl)N1CCn2c(nnc2-c2cccnc2)C1 — 16-fold lower, 6.31 nM
- Cc1c(CNC(=O)[C@@H]2CNC(=O)N2C)cccc1C(F)(F)F — 50-fold lower, 2 nM
- Cc1c(CNC(=O)[C@@H]2CCC(=O)N2C(C)C)cccc1C(F)(F)F — 25-fold lower, 3.98 nM
- Cc1cccc(C)c1N1CCN(Cc2cccc(C(F)(F)F)c2Cl)C(=O)C1=O — 16-fold lower, 6.31 nM
- O=C1C(=O)N(c2cccc3ccccc23)CCN1Cc1c(F)cccc1Cl — 6.3-fold higher, 631 nM
- CN1C(=O)CC[C@H]1C(=O)NCc1cccc(Cl)c1F — within 1.5-fold, 126 nM
- CCN1C(=O)OC[C@H]1C(=O)NCc1ccc(F)cc1Cl — the same, 100 nM
- O=C(c1cccc(C(F)(F)F)c1Cl)N1CCn2c(nc(Cl)c2Br)C1 — 40-fold lower, 2.51 nM
- O=C(c1ccccc1Cl)N1CCn2c(nnc2-c2ccc(F)cc2)C1 — within 1.5-fold, 79.4 nM
- O=C(c1ccc(F)cc1Cl)N1CCN(c2ccc(F)cc2Cl)C(=O)C1 — 2.5-fold higher, 251 nM
- CCN1C(=O)NC[C@H]1C(=O)NCc1ccc(Cl)cc1Cl — 7.9-fold lower, 12.6 nM
- CCOc1ccc(-n2nc(C)c(CC(=O)NCc3ccc(F)cc3Cl)c2C)cc1 — 1.6-fold higher, 158 nM
- CN1C(=O)N(c2cncnc2)C[C@H]1C(=O)NCc1ccc(Cl)cc1Cl — 2-fold lower, 50.1 nM
- Cc1nn(-c2ccncc2)c(C)c1CC(=O)NCc1ccc(F)cc1Cl — 1.6-fold lower, 63.1 nM
- CCN1C(=O)CC[C@H]1C(=O)NCc1ccc(Cl)c(C(F)(F)F)c1 — within 1.5-fold, 79.4 nM
- O=C1C(=O)N(c2cc(Br)ccc2Cl)CCN1Cc1ccc(F)cc1Cl — 10-fold lower, 10 nM
- CN1[C@H](C(=O)NCc2ccc(F)cc2Cl)CCS1(=O)=O — within 1.5-fold, 126 nM
- CN1C(=O)CC[C@@H]1C(=O)NCc1cccc(Cl)c1Cl — 1.6-fold lower, 63.1 nM
- CC(C)(C)CN1C(=O)CC[C@@H]1C(=O)NCc1cccc(C(F)(F)F)c1Cl — 1.6-fold higher, 158 nM
- Cc1nn(CCN(C)CCO)c(C)c1CC(=O)NCc1ccc(F)cc1Cl — 2-fold higher, 200 nM
- Cn1nccc1-c1nnc2n1CCN(C(=O)c1cccc(C(F)(F)F)c1Cl)C2 — 6.3-fold lower, 15.8 nM
- Cc1ccccc1N1CCN(Cc2cc(Cl)ccc2Cl)C(=O)C1=O — 10-fold higher, 1000 nM
- O=C(NCc1ccc(F)cc1Cl)C1CC(=O)N(C2CC2)C1 (configuration not stated) — 5-fold higher, 501 nM
- Cc1ccc(N2C[C@@H](C(=O)NCc3cccc(C(F)(F)F)c3Cl)N(C)C2=O)c(C)n1 — 13-fold lower, 7.94 nM
- CN1C(=O)N(c2ncc(Cl)cn2)C[C@H]1C(=O)NCc1ccc(Cl)cc1Cl — 16-fold lower, 6.31 nM
- CN1C(=O)NC[C@H]1C(=O)NCc1c(F)cc(Cl)cc1Cl — 6.3-fold lower, 15.8 nM
- CCC(C)N1C(=O)CC[C@@H]1C(=O)NCc1cccc(C(F)(F)F)c1Cl (some centres not stated) — 1.6-fold lower, 63.1 nM
- Cc1cccc(C)c1N1CCN(Cc2ccc(F)cc2Cl)C(=O)C1=O — 32-fold lower, 3.16 nM
- C=C(C)CN1C(=O)CC[C@H]1C(=O)NCc1ccc(F)cc1Cl — 4-fold higher, 398 nM
- O=C(c1ccc(F)cc1Cl)N1CCn2c(nnc2-c2cccc3cc[nH]c23)C1 — 3.2-fold lower, 31.6 nM
- CCN1C(=O)CC[C@H]1C(=O)NCc1ccccc1Br — 2.5-fold higher, 251 nM
- COCCN1CCN(C(=O)c2cccc(C(F)(F)F)c2Cl)CC1=O — 3.2-fold higher, 316 nM
- CC(C)N1C(=O)CC[C@H]1C(=O)NCc1ccc(F)c(F)c1Cl — 5-fold lower, 20 nM
- CC(C)N1C(=O)CC[C@H]1C(=O)NCc1ccc(Cl)cc1Cl — 13-fold lower, 7.94 nM
- Cc1c(Cl)cccc1CNC(=O)[C@@H]1CCS(=O)(=O)N1C(C)C — 2.5-fold higher, 251 nM
- CC(C)CN1CC(C(=O)NCc2ccc(Cl)cc2Cl)CC1=O (configuration not stated) — within 1.5-fold, 79.4 nM
- O=C1C(=O)N(c2cccc3ncccc23)CCN1Cc1ccc(F)cc1Cl — 5-fold higher, 501 nM
- CN1C(=O)N(c2ncccn2)C[C@H]1C(=O)NCc1ccc(F)c(F)c1Cl — 13-fold lower, 7.94 nM
- O=C(c1ccc(Cl)c(Cl)c1)N1CCn2c(nnc2-c2cnccn2)C1 — 3.2-fold lower, 31.6 nM
- Cc1cc(F)cc(C)c1N1CCN(Cc2ccc(F)cc2C(F)(F)F)C(=O)C1=O — within 1.5-fold, 79.4 nM
- CN1C(=O)CC[C@H]1C(=O)NCc1ccc(F)c(F)c1Cl — 2.5-fold lower, 39.8 nM
- Cc1ccccc1N1CCN(C(=O)c2cccc(C(F)(F)F)c2Cl)CC1=O — 10-fold lower, 10 nM
- Cc1nn(-c2ccccc2)c(C)c1CC(=O)NCc1ccccc1Br — 3.2-fold higher, 316 nM
- CCN1C(=O)CC[C@@H]1C(=O)NCc1c(C)cccc1Cl — 5-fold higher, 501 nM
- Cc1cccnc1N1C[C@@H](C(=O)NCc2cccc(C(F)(F)F)c2Cl)N(C)C1=O — 20-fold lower, 5.01 nM
- Cc1nn(-c2ccccc2F)c(C)c1CC(=O)NCc1ccc(F)cc1Cl — 1.6-fold higher, 158 nM
- CN1C[C@@H](C(=O)NCc2ccc(F)c(C(F)(F)F)c2Cl)N(C)C1=O — 100-fold lower, 1 nM
- CCc1nnc2n1CCN(C(=O)c1cccc(C(F)(F)F)c1Cl)C2 — 3.2-fold lower, 31.6 nM
- O=C(c1cccc(C(F)(F)F)c1F)N1CCn2c(nnc2-c2ccccn2)C1 — 20-fold lower, 5.01 nM

Reference: ChEMBL document CHEMBL2218064, “Structure-activity relationship data for chemical series of antagonists of the P2X7 receptor (Supplementary Bioactivity Data for publication CHEMBL1157114)”
